According to patent US20240067632A1, “WEE1 Degrading Compounds and Uses Thereof” (Bristol-Myers Squibb Company, priority 2022, published 2024):
Where two headings read alike, the source gives them in different places.

Key:
WEE1 = target: T1, WEE1 (Homo sapiens, UniProt P30291+Q96SW2); assay: WEE1-ePL degradation assay (LentiX-WEE1-ePL-GSPT1-ND cells, InCELL Hunter luminescence, 4 h); format: cell-based; conditions: 293T-LentiX WEE1-ePL cells; for DC50: read-out: 293T-LentiX WEE1-ePL Degradation 4 hr (EC50)
T1 construct: C-terminal ePL-tagged (DiscoverX, Fremont, CA) full-length WEE1 expression construct; expressed in transfected cells; host or cells: LentiX-HEK293T (Invitrogen), lentiviral transduction; co-expressing GSPT1-GN (G576N, lacking the first 158 amino acids)
Method in brief: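 Luminescent readout (InCELL Hunter, 30 min RT) of WEE1-ePL levels in transduced HEK293T cells after 4 h compound exposure at 37 °C. Dosing: 10 points, 3-fold steps, top 1 uM or 10 uM. EC50 from four-parameter logistic fit; Ymax set by DMSO.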

MKN45 cells = assay: MKN45 cell proliferation assay (Cell-Titer-Glo, 120 h); format: cell-based; conditions: for EC50: Homo sapiens, MKN-45, 120 h, Cell-Titer-Glo, read-out: MKN45 Cell Prolif. 120 hr (EC50); for MKN45 Cell Prolif. 120 hr (Ymin-Obs): minimal percent of DMSO control observed in the concentrations tested
Method in brief: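 Cells seeded at 400/well onto pre-printed 10-point half-log dilutions (top 1 or 10 uM, 0.1% DMSO final), in triplicate, and grown 120 h at 37 C. Viability by Cell-Titer-Glo luminescence, blank-subtracted and normalised to DMSO; EC50 from four-parameter logistic fit, with observed minimal % of control recorded as Ymin-obs.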

[1] = lower limit of the fit (0 = luciferase inhibitor, Ymax = DMSO control)
[2] = lower limit of the fit (Ymin=0 luciferase inhibitor, Ymax DMSO control)

| Structure (SMILES) | 293T-LentiX WEE1-ePL Degradation 4 hr (Ymin) (WEE1; [1]) | DC50 (WEE1) [nM] | EC50 (MKN45 cells; growth inhibition) [nM] | 293T-LentiX WEE1-ePL Degradation 4 hr (Ymin) (WEE1; [2]) | EC50 (MKN45 cells) [nM] | MKN45 Cell Prolif. 120 hr (Ymin-Obs) (MKN45 cells) |
| --- | --- | --- | --- | --- | --- | --- |
| CC(C)(O)c1ccc2cc(CN3CC[C@H](Oc4ccc5c(c4)CN([C@H]4CCC(=O)NC4=O)C5=O)C3)ccc2n1 [(3S)-3-(5-{[(3S)-1-{[2-(2-hydroxypropan-2-yl)quinolin-6-yl]methyl}pyrrolidin-3-yl]oxy}-1-oxo-2,3-dihydro-1H-isoindol-2-yl)piperidine-2,6-dione] | 33.92 | 1.69 | 10.1 |  |  | 12.89 |
| O=C1CC[C@H](N2Cc3cc(O[C@H]4CCN(Cc5ccc6nc(C7CCOCC7)ccc6c5)C4)ccc3C2=O)C(=O)N1 [(3S)-3-(5-{[(3S)-1-{[2-(oxan-4-yl)quinolin-6-yl]methyl}pyrrolidin-3-yl]oxy}-1-oxo-2,3-dihydro-1H-isoindol-2-yl)piperidine-2,6-dione] | 31.9 | 1.62 | 3.12 |  |  | 10.43 |
| CNC(=O)c1ccc2cc(CN3CC[C@H](Oc4ccc5c(c4)CN(C4CCC(=O)NC4=O)C5=O)C3)ncc2c1 (stereo partly drawn) [3-{[(3S)-3-{[2-(2,6-dioxopiperidin-3-yl)-1-oxo-2,3-dihydro-1H-isoindol-5-yl]oxy}pyrrolidin-1-yl]methyl}-N-methylisoquinoline-7-carboxamide] | 28 | 29.8 | 66.8 |  |  | 7.51 |
| O=C1CCC(N2Cc3cc(O[C@H]4CCN(Cc5ccc6nc(N7CCOCC7)ncc6c5)C4)ccc3C2=O)C(=O)N1 (stereo partly drawn) [3-(5-{[(3S)-1-{[2-(morpholin-4-yl)quinazolin-6-yl]methyl}pyrrolidin-3-yl]oxy}-1-oxo-2,3-dihydro-1H-isoindol-2-yl)piperidine-2,6-dione] | 31.33 | 7.2 | 16.1 |  |  | 9.637 |
| CC(C)OCc1ccc2cc(CN3CC[C@H](Oc4ccc5c(c4)CN(C4CCC(=O)NC4=O)C5=O)C3)ccc2n1 (stereo partly drawn) [3-(1-oxo-5-{[(3S)-1-({2-[(propan-2-yloxy)methyl]quinolin-6-yl}methyl)pyrrolidin-3-yl]oxy}-2,3-dihydro-1H-isoindol-2-yl)piperidine-2,6-dione] | 36 | 6.51 | 3.4 |  |  | 8.147 |
| O=C1CCC(N2Cc3cc(O[C@H]4CCN(Cc5cc6c(F)cccc6cn5)C4)ccc3C2=O)C(=O)N1 (stereo partly drawn) [3-(5-{[(3S)-1-[(5-fluoroisoquinolin-3-yl)methyl]pyrrolidin-3-yl]oxy}-1-oxo-2,3-dihydro-1H-isoindol-2-yl)piperidine-2,6-dione] | 43.45 | 13.3 | 185 |  |  | 53.33 |
| CO[C@H]1CC[C@@H](Nc2ccc3cc(CN4CC[C@H](Oc5ccc6c(c5)CN(C5CCC(=O)NC5=O)C6=O)C4)ccc3n2)CC1 (stereo partly drawn) [3-(1-oxo-5-{[(3S)-1-[(2-{[(1s,4s)-4-methoxycyclohexyl]amino}quinolin-6-yl)methyl]pyrrolidin-3-yl]oxy}-2,3-dihydro-1H-isoindol-2-yl)piperidine-2,6-dione] | 29.5 | 6.38 | 1.04 |  |  | 6.285 |
| O=C1CCC(N2Cc3cc(O[C@H]4CCN(Cc5ccc6nc(N7CCC78COC8)ccc6c5)C4)ccc3C2=O)C(=O)N1 (stereo partly drawn) [3-(5-{[(3S)-1-[(2-{6-oxa-1-azaspiro[3.3]heptan-1-yl}quinolin-6-yl)methyl]pyrrolidin-3-yl]oxy}-1-oxo-2,3-dihydro-1H-isoindol-2-yl)piperidine-2,6-dione] | 35 | 6.17 | 3.82 |  |  | 8.91 |
| COC[C@H]1CC[C@@H](c2ccc3cc(CN4CC[C@H](Oc5ccc6c(c5)CN(C5CCC(=O)NC5=O)C6=O)C4)ccc3n2)C1 (stereo partly drawn) [3-(5-{[(3S)-1-({2-[(1R,3S)-3-(methoxymethyl)cyclopentyl]quinolin-6-yl}methyl)pyrrolidin-3-yl]oxy}-1-oxo-2,3-dihydro-1H-isoindol-2-yl)piperidine-2,6-dione] |  | 3.12 |  | 34.11 | 3.09 | 8.888 |
| CC(c1cnc2ccccc2c1)N1CC[C@@H](Oc2ccc3c(c2)CN(C2CCC(=O)NC2=O)C3=O)C1 (stereo in doubt) [rel-3-(1-oxo-5-{[(3R)-1-[1-(quinolin-3-yl)ethyl]pyrrolidin-3-yl]oxy}-2,3-dihydro-1H-isoindol-2-yl)piperidine-2,6-dione] | 50.89 | 83.4 | > 10000 |  |  | 76.71 |
| O=C1CC[C@H](N2Cc3cc(O[C@H]4CCN(Cc5ccc6nc(N7CCCC7)ncc6c5)C4)ccc3C2=O)C(=O)N1 [(3S)-3-(1-oxo-5-{[(3S)-1-{[2-(pyrrolidin-1-yl)quinazolin-6-yl]methyl}pyrrolidin-3-yl]oxy}-2,3-dihydro-1H-isoindol-2-yl)piperidine-2,6-dione] |  | 6.04 |  | 43.18 | 26.9 | 21.92 |
| CO[C@H]1CC[C@H](Oc2ccc3cc(CN4CC[C@H](Oc5ccc6c(c5)CN(C5CCC(=O)NC5=O)C6=O)C4)ccc3n2)CC1 (stereo partly drawn) [3-(1-oxo-5-{[(3S)-1-[(2-{[(1r,4r)-4-methoxycyclohexyl]oxy}quinolin-6-yl)methyl]pyrrolidin-3-yl]oxy}-2,3-dihydro-1H-isoindol-2-yl)piperidine-2,6-dione] | 30.67 | 11.5 | 9.05 |  |  | 8.57 |
| Cc1ccc2ncc(CN3CC[C@H](Oc4ccc5c(c4)CN(C4CCC(=O)NC4=O)C5=O)C3)cc2c1 (stereo partly drawn) [3-(5-{[(3S)-1-[(6-methylquinolin-3-yl)methyl]pyrrolidin-3-yl]oxy}-1-oxo-2,3-dihydro-1H-isoindol-2-yl)piperidine-2,6-dione] | 29.6 | 9.38 | 33.6 |  |  | 13.08 |

Continued by falling DC50 (WEE1), values first:

| 293T-LentiX WEE1-ePL Degradation 4 hr (Ymin) (WEE1; [1]) | DC50 (WEE1) [nM] | EC50 (MKN45 cells; growth inhibition) [nM] | 293T-LentiX WEE1-ePL Degradation 4 hr (Ymin) (WEE1; [2]) | EC50 (MKN45 cells) [nM] | Structure (SMILES) | MKN45 Cell Prolif. 120 hr (Ymin-Obs) (MKN45 cells) |
| --- | --- | --- | --- | --- | --- | --- |
| 43.5 | 33.4 | 350 |  |  | O=C1CCC(N2Cc3cc(O[C@H]4CCN(Cc5ccc6nc(CC(F)F)ccc6c5)C4)ccc3C2=O)C(=O)N1 (stereo partly drawn) [3-(5-{[(3S)-1-{[2-(2,2-difluoroethyl)quinolin-6-yl]methyl}pyrrolidin-3-yl]oxy}-1-oxo-2,3-dihydro-1H-isoindol-2-yl)piperidine-2,6-dione] | 21.74 |
| 26.03 | 12.5 | 66.3 |  |  | O=C1CCC(N2Cc3cc(O[C@H]4CCN(Cc5cc6ccccc6nn5)C4)ccc3C2=O)C(=O)N1 (stereo partly drawn) [3-(5-{[(3S)-1-[(cinnolin-3-yl)methyl]pyrrolidin-3-yl]oxy}-1-oxo-2,3-dihydro-1H-isoindol-2-yl)piperidine-2,6-dione] | 8.97 |
| 27.43 | 4.25 | 4.65 |  |  | C[C@@H]1CN(Cc2ccc3nc([C@@H]4CCOC(C)(C)C4)ccc3c2)C[C@H]1Oc1ccc2c(c1)CN(C1CCC(=O)NC1=O)C2=O (stereo partly drawn) [3-(5-{[(3S,4R)-1-({2-[(4R)-2,2-dimethyloxan-4-yl]quinolin-6-yl}methyl)-4-methylpyrrolidin-3-yl]oxy}-1-oxo-2,3-dihydro-1H-isoindol-2-yl) piperidine-2,6-dione] | 9.178 |
| 34 | 3.58 | 1.58 |  |  | CO[C@H]1CCN(c2ccc3cc(CN4CC[C@H](Oc5ccc6c(c5)CN(C5CCC(=O)NC5=O)C6=O)C4)ccc3n2)C1 (stereo partly drawn) [3-(5-{[(3S)-1-({2-[(3S)-3-methoxypyrrolidin-1-yl]quinolin-6-yl}methyl)pyrrolidin-3-yl]oxy}-1-oxo-2,3-dihydro-1H-isoindol-2-yl)piperidine-2,6-dione] | 9.12 |
| 28 | 2 | 0.738 |  |  | O=C1CCC(N2Cc3cc(O[C@H]4CCN(Cc5cc(-c6cccc(C7=CCOCC7)c6)ccn5)C4)ccc3C2=O)C(=O)N1 (stereo partly drawn) [3-(5-{[(3S)-1-({4-[3-(3,6-dihydro-2H-pyran-4-yl)phenyl]pyridin-2-yl}methyl)pyrrolidin-3-yl]oxy}-1-oxo-2,3-dihydro-1H-isoindol-2-yl)piperidine-2,6-dione] | 7.53 |
|  | 1.15 |  | 24.64 | 0.424 | C[C@@H]1CN(Cc2ccc3nc([C@@H]4CCOC(C)(C)C4)ccc3c2)C[C@H]1Oc1ccc2c(c1)CN([C@H]1CCC(=O)NC1=O)C2=O [(3S)-3-(5-{[(3S,4R)-1-({2-[(4R)-2,2-dimethyloxan-4-yl]quinolin-6-yl}methyl)-4-methylpyrrolidin-3-yl]oxy}-1-oxo-2,3-dihydro-1H-isoindol-2-yl)piperidine-2,6-dione] | 8.113 |
